Measured values published in patent US20200121652A1, “COMPOUNDS HAVING CASPASE INHIBITORY ACTIVITY, PHARMACEUTICAL AGENT CONTAINING SAID COMPOUNDS AND FOR TREATING OR PREVENTING CORNEAL ENDOTHELIAL SYMPTOMS, DISORDERS, OR DISEASES, AND APPLICATION OF SAID PHARMACEUTICAL AGENT” (The Doshisha, priority 2017, published 2020).
Structures can show the parent of a compound that is named as a salt.

Test system: immortalized Fuchs' endothelial corneal dystrophy cells
Assay: Concentration-dependent caspase 3/7 activity under TGF-β2 stimulation (Example 3)
Format: cell-based
Conditions: Homo sapiens, TGF-β2 10 ng/mL, 28 hours; for activity at 0.01 µM: agent 10 nM; for activity at 0.1 µM: agent 100 nM; for activity at 1 µM: agent 1 μM; for activity at 10 µM: agent 10 μM; for activity at 0.001 µM: agent 1 nM
Experimental: 7×10^3 immortalized Fuchs' endothelial corneal dystrophy cells were seeded on a 96-well plate and were cultured for 24 hours under the condition of 5% CO2 at 37° C.
After 28 hours under the condition of 5% CO2 at 37° C., cell morphology was observed using a phase difference microscope. Caspase 3/7 activity was then measured using Caspase-Glo 3/7 Assay (Promega, #G8091). DMEM+2% FBS+1% P/S was used as the medium. Caspase 3/7 activity and cell viability in this example were measured using GloMax-Multi Detection System (Promega, E7051).
Caspase 3/7 activity below 80% was used as a indicator indicating whether an agent can be used for treating or preventing a corneal endothelial condition, disorder, or disease, or whether an agent can be used as a caspase inhibitor (the underlines in FIG. 4A-1, FIG. 4A-2 and FIG. 4A-3, and FIG. 4B-1, FIG. 4B-2 and FIG. 4B-3).

Compound	activity at 0.01 µM	activity at 0.1 µM	activity at 1 µM	activity at 10 µM	activity at 0.001 µM	activity at 1 pM (agent 1 pM)	activity at 10 pM (agent 10 pM)
CC(=O)OCC(=O)[C@@]12OC3(CCCC3)O[C@@H]1C[C@H]1[C@@H]3CCC4=CC(=O)C=C[C@]4(C)[C@@]3(F)[C@@H](O)C[C@@]12C [Amcinonide]	≤ 80%	≤ 80%	≤ 80%	≤ 80%			
O=C1CCc2ccc(OCCCCN3CCN(c4cccc(Cl)c4Cl)CC3)cc2N1 [Aripiprazole]				≤ 80%			
CN1CC2c3ccccc3Oc3ccc(Cl)cc3C2C1 (centres unmarked) [Asenapine Maleate]				≤ 80%			
CCC(=O)OCC(=O)[C@@]1(OC(=O)CC)[C@@H](C)C[C@H]2[C@@H]3CCC4=CC(=O)C=C[C@]4(C)[C@@]3(Cl)[C@@H](O)C[C@@]21C [Beclomethasone Dipropionate]		≤ 80%	≤ 80%	≤ 80%			
C[C@H]1C[C@H]2[C@@H]3CCC4=CC(=O)C=C[C@]4(C)[C@@]3(F)[C@@H](O)C[C@]2(C)[C@@]1(O)C(=O)CO [Betamethasone]		≤ 80%	≤ 80%	≤ 80%			
CC(C)C[C@H]1C(=O)N2CCC[C@H]2[C@]2(O)O[C@](NC(=O)[C@@H]3C=C4c5cccc6[nH]c(Br)c(c56)C[C@H]4N(C)C3)(C(C)C)C(=O)N12 [Bromocriptine Mesylate]				≤ 80%			
CCCC1O[C@@H]2C[C@H]3[C@@H]4CCC5=CC(=O)C=C[C@]5(C)[C@H]4[C@@H](O)C[C@]3(C)[C@]2(C(=O)CO)O1 (some centres unmarked) [Budesonide]	≤ 80%	≤ 80%	≤ 80%	≤ 80%	≤ 80%		
C=C1/C(=C\C=C2/CCC[C@]3(C)[C@@H]([C@H](C)CCCC(C)(C)O)CC[C@@H]23)C[C@@H](O)C[C@@H]1O [Calcitriol]				≤ 80%			
COc1ccccc1OCCNCC(O)COc1cccc2[nH]c3ccccc3c12 (centres unmarked) [Carvedilol]				≤ 80%			
CCC(=O)O[C@]1(C(=O)CCl)[C@@H](C)C[C@H]2[C@@H]3CCC4=CC(=O)C=C[C@]4(C)[C@@]3(F)[C@@H](O)C[C@@]21C [Clobetasol Propionate]	≤ 80%	≤ 80%	≤ 80%	≤ 80%		≤ 80%	
O=C(O)c1ccc(-n2nc(-c3ccccc3O)nc2-c2ccccc2O)cc1 [Deferasirox]				≤ 80%			
CC1(C)O[C@@H]2C[C@H]3[C@@H]4CCC5=CC(=O)C=C[C@]5(C)[C@H]4[C@@H](O)C[C@]3(C)[C@]2(C(=O)CO)O1 [Desonide]		≤ 80%	≤ 80%	≤ 80%			
C[C@@H]1C[C@H]2[C@@H]3CCC4=CC(=O)C=C[C@]4(C)[C@@]3(F)[C@@H](O)C[C@]2(C)[C@H]1C(=O)CO [Desoximetasone]	≤ 80%	≤ 80%	≤ 80%	≤ 80%			
C[C@@H]1C[C@H]2[C@@H]3CCC4=CC(=O)C=C[C@]4(C)[C@@]3(F)[C@@H](O)C[C@]2(C)[C@@]1(O)C(=O)CO [Dexamethasone]	≤ 80%	≤ 80%	≤ 80%	≤ 80%			
CCCC(=O)O[C@]1(C(=O)COC(C)=O)CC[C@H]2[C@@H]3C[C@H](F)C4=CC(=O)C=C[C@]4(C)[C@@]3(F)[C@@H](O)C[C@@]21C [Difluprednate]	≤ 80%	≤ 80%	≤ 80%	≤ 80%	≤ 80%		
CN1C[C@H](C(=O)N[C@]2(C)O[C@@]3(O)[C@@H]4CCCN4C(=O)[C@H](Cc4ccccc4)N3C2=O)C[C@@H]2c3cccc4[nH]cc(c34)C[C@H]21 [Dihydroergotamine Mesylate]				≤ 80%			
CO[C@H]1C[C@@H]2CC[C@@H](C)[C@@](O)(O2)C(=O)C(=O)N2CCCC[C@H]2C(=O)O[C@H]([C@H](C)C[C@@H]2CC[C@@H](OCCO)[C@H](OC)C2)CC(=O)[C@H](C)/C=C(\C)[C@@H](O)[C@@H](OC)C(=O)[C@H](C)C[C@H](C)/C=C/C=C/C=C/1C [Everolimus]	≤ 80%	≤ 80%	≤ 80%	≤ 80%			
CC(=O)OCC(=O)[C@@]1(O)CC[C@H]2[C@@H]3CCC4=CC(=O)CC[C@]4(C)[C@@]3(F)[C@@H](O)C[C@@]21C [Fludrocortisone Acetate]		≤ 80%	≤ 80%	≤ 80%			

Compound	activity at 0.01 µM	activity at 0.1 µM	activity at 1 µM	activity at 10 µM	activity at 0.001 µM	activity at 1 pM (agent 1 pM)	activity at 10 pM (agent 10 pM)
CC1(C)O[C@@H]2C[C@H]3[C@@H]4C[C@H](F)C5=CC(=O)C=C[C@]5(C)[C@@]4(F)[C@@H](O)C[C@]3(C)[C@]2(C(=O)CO)O1 [Fluocinolone Acetonide]	≤ 80%	≤ 80%	≤ 80%	≤ 80%			≤ 80%
CC(=O)[C@@]1(O)CC[C@H]2[C@@H]3C[C@H](C)C4=CC(=O)C=C[C@]4(C)[C@@]3(F)[C@@H](O)C[C@@]21C [Fluorometholone]		≤ 80%	≤ 80%	≤ 80%			
CC1(C)O[C@@H]2C[C@H]3[C@@H]4C[C@H](F)C5=CC(=O)CC[C@]5(C)[C@H]4[C@@H](O)C[C@]3(C)[C@]2(C(=O)CO)O1 [Flurandrenolide]	≤ 80%	≤ 80%	≤ 80%	≤ 80%			
C[C@]12CC[C@@H]3c4ccc(O)cc4C[C@@H](CCCCCCCCC[S+]([O-])CCCC(F)(F)C(F)(F)F)[C@H]3[C@@H]1CC[C@@H]2O (some centres unmarked) [Fulvestrant]	≤ 80%	≤ 80%	≤ 80%	≤ 80%			
CC1(C)O[C@@H]2C[C@H]3[C@@H]4CCC5=CC(=O)CC[C@]5(C)[C@@]4(F)[C@@H](O)C[C@]3(C)[C@]2(C(=O)CCl)O1 [Halcinonide]	≤ 80%	≤ 80%	≤ 80%	≤ 80%			
CC(=O)N1CCN(c2ccc(OCC3COC(Cn4ccnc4)(c4ccc(Cl)cc4Cl)O3)cc2)CC1 (centres unmarked) [Ketoconazole]				≤ 80%			
C[C@H]1C[C@@H]2[C@H]([C@@H](O)C[C@@]3(C)[C@H]2CC[C@]3(O)C(=O)CO)[C@@]2(C)C=CC(=O)C=C12 [Methylprednisolone]		≤ 80%	≤ 80%	≤ 80%			
C[C@@H]1C[C@H]2[C@@H]3CCC4=CC(=O)C=C[C@]4(C)[C@@]3(Cl)[C@@H](O)C[C@]2(C)[C@@]1(OC(=O)c1ccco1)C(=O)CCl [Mometasone Furoate]	≤ 80%	≤ 80%	≤ 80%	≤ 80%			
COc1c(C)c2c(c(O)c1C/C=C(\C)CCC(=O)OCCN1CCOCC1)C(=O)OC2 [Mycophenolate Mofetil]	≤ 80%	≤ 80%	≤ 80%	≤ 80%			
COc1c(C)c2c(c(O)c1C/C=C(\C)CCC(=O)O)C(=O)OC2 [Mycophenolic Acid]	≤ 80%	≤ 80%	≤ 80%	≤ 80%			
COC(=O)C1=C(C)NC(C)=C(C(=O)OCC(C)C)C1c1ccccc1[N+](=O)[O-] (centres unmarked) [Nisoldipine]				≤ 80%			
CC(=O)Oc1ccccc1C(=O)Nc1ncc([N+](=O)[O-])s1 [Nitazoxanide]				≤ 80%			
CC[C@@H]1/C=C(\C)C[C@H](C)C[C@H](OC)[C@H]2O[C@@](O)(C(=O)C(=O)N3CCCC[C@H]3C(=O)O[C@H](/C(C)=C/[C@@H]3CC[C@H](Cl)[C@H](OC)C3)[C@H](C)[C@@H](O)CC1=O)[C@H](C)C[C@@H]2OC [Pimecrolimus]	≤ 80%		≤ 80%	≤ 80%			
C[C@]12C=CC(=O)C=C1CC[C@@H]1[C@@H]2[C@@H](O)C[C@@]2(C)[C@H]1CC[C@]2(O)C(=O)CO [Prednisolone]		≤ 80%	≤ 80%	≤ 80%			
CCc1nc(N)nc(N)c1-c1ccc(Cl)cc1 [Pyrimethamine]				≤ 80%			
CO[C@H]1/C=C/O[C@@]2(C)Oc3c(C)c(O)c4c(O)c(c(/C=N/N5CCN(C6CCCC6)CC5)c(O)c4c3C2=O)NC(=O)/C(C)=C\C=C\[C@H](C)[C@H](O)[C@@H](C)[C@@H](O)[C@@H](C)[C@H](OC(C)=O)[C@@H]1C [Rifapentine]			≤ 80%				
Cc1ccc(O)c([C@H](CCN(C(C)C)C(C)C)c2ccccc2)c1 [Tolterodine Tartrate]	≤ 80%		≤ 80%	≤ 80%	≤ 80%		
CC1(C)O[C@@H]2C[C@H]3[C@@H]4CCC5=CC(=O)C=C[C@]5(C)[C@@]4(F)[C@@H](O)C[C@]3(C)[C@]2(C(=O)CO)O1 [Triamcinolone Acetonide]	≤ 80%	≤ 80%	≤ 80%	≤ 80%			
